From patent US20040175352A1, “Microbicidal compositions including an ionene polymer and 2,4,4-trichloro-2-hydroxydiphenyl ether, and methods of using the same” (priority 2003, published 2004)
Where “and” joins values, the source holds several entries; their conditions need not be identical. Equal values may be shown once.

What was measured:
Type in all cases: cell-based
Trichoderma viride = test: Fungal evaluation, Trichoderma viride growth prevention (end point, Kull synergism); conditions: lowest concentration completely preventing growth for seven days, mineral salts-glucose medium pH 6, 25° C.
Experimental: Mineral salts-glucose medium was used. To prepare the medium, the following ingredients were added to 1 liter of deionized water: 0.7 g of KH2PO4; 0.7 g of MgSO4.7H2O; 1.0 g of HN4NO3; 0.005 g of NaCl; 0.002 g of FeSO4.7H20; 0.002 g ZnSO4.7H2O; 0.001 g of MnSO4.7H2O; 10 g of Glucose. The pH of the medium was adjusted to 6 with 1N NaOH. The medium was distributed in 5 ml amounts in test tubes and autoclaved at 121° C. for 20 minutes. The fungus, Trichoderma viride or Aspergillus niger, was grown on potato dextrose agar slant for 5 to 10 days and a spore suspension prepared by washing down the spores from the slant into a sterile saline solution. After addition of the biocides in the desired concentrations in the sterile mineral salts-glucose medium, the fungal spore suspension was added. The final spore concentration was approximately 10^6 cfu/ml. The inoculated media was incubated at 25° C. for 7 days.
(Busan® 77), poly[hydroxyethylene-(dimethyliminio)-2-hydroxypropylene(dimethyliminio)methylene dichloride] […]

Pseudomonas aeruginosa = test: Bacterial evaluation, Pseudomonas aeruginosa growth prevention (end point, Kull synergism)
Experimental: (§1) Nutrient broth (2.5 g/liter of deionized water) was prepared. This was distributed in 5 ml amounts in test tubes and autoclaved at 121° C. for 20 minutes. After addition of the biocides in the desired concentrations to the nutrient broth, 100 microliters of a 24-hour grown suspension of Pseudomonas aeruginosa or Klebsiella pneumoniae cells of approximately 9.3×10^8 cfu/ml were added and incubated at 30° C. for 24 or 48 hours.
(§2) (Busan® 77), poly[hydroxyethylene-(dimethyliminio)-2-hydroxypropylene(dimethyliminio)methylene dichloride] (Busan® 1055 or APCA), or a cross-linked terpolymer of dimethylamine, epichlorohydrin and ethylenediamine (Busan® 1157), (designated component A), and triclosan (designated component B) in a series of tests in varying ratios and a range of concentrations against the fungi Trichoderma viride, and Aspergillus niger, the bacteria Pseudomonas aeruginosa and Klebsiella pneumoniae, and the alga Chlorella sp. using the methods described above.
(§3) End points for the various mixtures were then compared with the end points for the pure active ingredients alone in concomitantly prepared flasks or test tubes.
(§4) Qa=Concentration of compound A in parts per million, acting alone, which produced an end point.
(§5) Qb=Concentration of compound B in parts per million, acting alone, which produced an end point. […]

Klebsiella pneumoniae = test: Bacterial evaluation, Klebsiella pneumoniae growth prevention (end point, Kull synergism); conditions: lowest concentration completely preventing growth for 24 or 48 hours, nutrient broth, 30° C.
Experimental: as §1, §2, §3, §4, §5

Chlorella sp. = test: Algal evaluation, Chlorella sp. growth prevention (end point, Kull synergism); conditions: lowest concentration completely preventing growth for three or four weeks, modified Allen's medium pH 7.8, 25° C., 180 ft-candle
Experimental: The medium used for testing the effectiveness of the invention against algae was modified Allen's medium (see Allen, A. A., Simple conditions for growth of unicellular blue-green algae on plates, JOURNAL OF PHYCOLOGY. 4:1-4 […]). To make modified Allen's medium, the following six individual stock solutions in g/200 ml of deionized water were first prepared: 1.50 g of K2HPO4; 1.50 g of MgSO4.7H20; 0.80 g Na2CO3; 0.5 g CaCl2.2H2O; 1.16 g Na2SiO3.9H2O; 1.20 g citric acid. A micronutrient stock solution was also prepared by adding the following ingredients to 1 liter of deionized water: 0.75 g of Na2EDTA; 0.097 g FeCl3.6H2O; 0.041 g of MnCl2.4H2O; 0.005 g ZnCl2; 0.002 g CoCl2.6H2O; 0.004 g Na2MoO4.2H2O. To make the final modified Allen's medium, the following ingredients and the stock solutions, prepared from above, were combined in a flask and then made up to 1 liter with deionized water: 1.5 g NaNO3; 5 ml K2HPO4; 5 ml MgSO4.7H2O; 5 ml Na2CO3; 10 ml CaCl2.2H2O; 10 ml Na2SiO3.9H2O; 1 ml citric acid; and 1 ml micronutrient stock solution. The pH was adjusted to 7.8. Then the medium was dispensed in 5 ml amounts in test tubes and autoclaved at 121° C. for 20 minutes. After autoclaving, the biocides were added to the medium in the desired concentrations. […]

For `Oc1cc(Cl)ccc1Oc1ccc(Cl)cc1Cl` [Triclosan, 2,4,4′-tricloro-2′-hydroxydiphenyl ether], the “Ob, quantity producing end point: concentration of component B (triclosan) acting alone” value (“Ob, quantity producing end point” for short) (Trichoderma viride) was 25 ppm, the “Ob, quantity producing end point” value (Pseudomonas aeruginosa; Pseudomonas aeruginosa, lowest concentration completely preventing growth for 24 or 48 hours, nutrient broth, 30° C.) was >500 ppm and the “effectiveness against Pseudomonas sp. when used individually” value (Pseudomonas aeruginosa; Pseudomonas sp., component used individually) was “ineffective”. For the same compound, the “Ob, quantity producing end point” value (Klebsiella pneumoniae) was 0.5 ppm and the “Ob, quantity producing end point” value (Chlorella sp.) was 0.5 ppm and 0.6 ppm.
